Laboratory results from EP1000062B1, “TRICYCLIC VASOPRESSIN AGONISTS” (Wyeth, priority 1997, dated 1999).

Assays:
Type in all cases: in vivo
Vasopressin V2 [1] = test: Vasopressin V2 agonist effects of test compounds in normal conscious homozygous Brattleboro rats with central diabetes insipidus; conditions: Brattleboro (BB) rats, oral 10 mg/kg, urine collected for six hours; for Osmolality (% Increase): change in osmolality as percent of control; for Urine Volume (% decrease): vs. control
Text: Vasopressin V2 Agonist Effects of Test Compounds in Normal Conscious Homozygous Brattleboro Rats with Central Diabetes Insipidus
Male or female homozygous Brattleboro rats (Harlan Sprague Dawley, Inc., Indianapolis, IN) of 250-350 g body weight were supplied with standard rodent diet (Purina Rodent Lab. Chow 5001) and water ad libitum. On the day of test, rats were placed individually into metabolic cages equipped with devices to separate the feces from the urine and containers for collection of urine. Test compound or reference agent was given at an oral dose of 1 to 10 mg/kg in a volume of 10 ml /kg. The vehicle used was 20% dimethylsulfoxide (DMSO) in 2.5% preboiled corn starch. During the test, rats were provided with water ad libitum. Urine was collected for six hours after dosing of the test compound. At the end of six hours, urine volume was measured. Urinary osmolality was determined using a Fiske One-Ten Osmometer (Fiske Associates, Norwood, MA, 02062) or an Advanced CRYOMATIC Osmometer, Model 3C2 (Advanced Instruments, Norwood, MA). Determinations of Na^+, K^+ and Cl^- ion were carried out using ion specific electrodes in a Beckman SYNCHRON EL-ISE Electrolyte System analyzer. This animal model was mainly used for evaluation of potency and duration of action of the active compounds.

Vasopressin V2 [2] = test: Vasopressin V2 agonist effects of test compounds in normal conscious water-loaded rats; conditions: Sprague-Dawley (CD) rats, oral 1 mg/kg, urine collected for four hours; for Osmolality (% Increase): change in osmolality as percent of control; for Urine Volume (% decrease): vs. control
Vasopressin V2 [3] = test: as above; conditions: Sprague-Dawley (CD) rats, oral 10 mg/kg, urine collected for four hours; for Osmolality (% Increase): change in osmolality as percent of control; for Urine Volume (% decrease): vs. control
Experimental: Vasopressin V2 Agonist Effects of Test Compounds in Normal Conscious Water-Loaded Rats:
On the day of test, rats were placed individually into metabolic cages equipped with devices to separate the feces from the urine and containers for collection of urine. Test compound or reference agent was given at an oral dose of 10 mg/kg in a volume of 10 ml /kg. […] Thirty minutes after dosing the test compound, rats were gavaged with water at 30 ml /kg into the stomach using a feeding needle. During the test, rats were not provided with water or food. Urine was collected for four hours after dosing of the test compound. At the end of four hours, urine volume was measured. […] Determinations of Na^+, K^+ and Cl^- ion were carried out using ion specific electrodes in a Beckman SYNCHRON EL-ISE Electrolyte System analyzer. […] In the screening test, two rats were used for each compound. If the difference in the urine volume of the two rats was greater than 50%, a third rat was used.

SMILES	Osmolality (% Increase) (Vasopressin V2 [1]) [%]	Urine Volume (% decrease) (Vasopressin V2 [1]) [%]	Osmolality (% Increase) (Vasopressin V2 [3]) [%]	Urine Volume (% decrease) (Vasopressin V2 [3]) [%]	further results
O=C(c1ccc(-c2ccn(C(=O)c3ccc(Cl)cc3Cl)n2)cc1)N1Cc2cccn2Cc2ccccc21 [Example 38, {4-[1-(2,4-Dichloro-benzoyl)-1H-pyrazol-3-yl]-phenyl}-(5H,11H-pyrrolo[2,1-c][1,4]benzodiazepin-10-yl)-methanone]	256	66			
Cc1ccn(-c2ccc(C(=O)N3Cc4cccn4Cc4ccccc43)c(C(F)(F)F)c2)n1 [Example 2, [4-(3-Methyl-pyrazol-1-yl)-2-trifluoromethyl-phenyl](5H,11H-pyrrolo[2,1-c]-[1,4]benzadiazepin-10-yl)-methanone]					Osmolality (% Increase) (Vasopressin V2 [2]): 306% (1 mg/kg); Urine Volume (% decrease) (Vasopressin V2 [2]): 80% (1 mg/kg)
CC(=O)n1ccc(-c2ccc(C(=O)N3Cc4cccn4Cc4ccccc43)cc2)n1 [Example 30, 1-{3-[4-(5H,11H-Pyrrolo[2,1-c][1,4]benzodiazepine-10-carbonyl)-phenyl]-pyrazol-1-yl}-ethanone]	334	81			
Cc1ccn(-c2ncc(C(=O)N3Cc4cccn4Cc4ccccc43)c(C(F)(F)F)n2)n1 [Example 20, [2-(3-Methyl-pyrazol-1-yl)-4-trifluoromethyl-pyrimidin-5-yl]-(5H,11H-pyrrolo[2,1-c][1,4]benzodiazepin-10-yl)-methanone]					Osmolality (% Increase) (Vasopressin V2 [2]): 152% (1 mg/kg); Urine Volume (% decrease) (Vasopressin V2 [2]): 25% (1 mg/kg)
O=C(c1ccc(-c2ccn(C(=O)c3cccs3)n2)cc1)N1Cc2cccn2Cc2ccccc21 [Example 34, (5H,11H-Pyrrolo[2,1-c][1,4]benzodiazepin-10-yl)-{4-[1-(thiophene-2-carbonyl)-1H-pyrazoly-3-yl]phenyl}-methanone]	407	76			
Cc1ccccc1C(=O)n1ccc(-c2ccc(C(=O)N3Cc4cccn4Cc4ccccc43)cc2)n1 [Example 36, {4-[1-(2-Methyl-benzoyl)-1H-pyrazol-3-yl]-phenyl}-(5H,11H-pyrrolo[2,1-c][1,4]benzodiazepin-10-yl)-methanone]	164	66			
Cn1ncnc1-c1ccc(C(=O)N2Cc3cccn3Cc3ccccc32)cc1 [Example 49, [4-(2-Methyl-2H-[1,2,4]triazol-3-yl)-phenyl]-(5H,11H-pyrrolo[2,1-c][1,4]-benzodiazepin-10-yl)-methanone]	221	74			
COc1cc(-n2ccc(C)n2)ccc1C(=O)N1Cc2ccc(CN(C)C)n2Cc2ccccc21 [Example 108, (3-Dimethylaminomethyl-5H,11H-pyrrolo[2,1-c][1,4]benzodiazepin-10-yl)[2-methoxy-4-(3-methyl-pyrazol-1-yl)-phenyl]-methanone]			145	30	
Cn1cc(-c2ccc(C(=O)N3Cc4cccn4Cc4ccccc43)cn2)cn1 [Example 57, [6-(1-Methyl-1H-pyrazol-4-yl)-pyridin-3-yl]-(5H,11H-pyrrolo[2,1-c][1,4]-benzodiazepin-10-yl)-methanone]			288	77	
Cc1nc(-c2ccc(C(=O)N3Cc4cccn4Cc4ccccc43)c(Cl)c2)n(C)n1 [Example 85, 4-[(2,5-Dimethyl-2H-[1,2,4]triazol-3-yl)-2-chloro-phenyl]-(5H,11H-pyrrolo[2,1-c][1,4]benzodiazepin-10-carbonyl)-methanone]			436	76	
Cc1noc(-c2ccc(C(=O)N3Cc4cccn4Cc4ccccc43)cc2)n1 [Example 52, [4-(3-Methyl[1,2,4]oxadiazol-5-yl)-phenyl]-(5H,11H-pyrrolo-[2,1-c][1,4]-benzodiazepin-10-yl)-methanone]			261	66	
Cc1ccn(-c2ccc(C(=O)N3Cc4nnnn4Cc4ccccc43)c(Cl)c2)n1 [Example 117]			311	68	
O=C(c1ccc(F)cc1F)N1Cc2cccn2Cc2ccccc21 [Example 91, (2,4-Difluoro-phenyl)-(5H,11H-pyrrolo[2,1-c][1,4]benzodiazepin-10-yl)-methanone]			69	22	
Cc1cnn(-c2ccc(C(=O)N3Cc4cccn4Cc4ccccc43)cc2)c1 [Example 60, [4-(4-Methyl-pyrazol-1-yl)-phenyl]-(5H,11H-pyrrolo[2,1-c][1,4]-benzodiazepin-10-yl)-methanone]			165	54	
O=C(c1ccc(-n2ccc(C(F)(F)F)n2)cc1Cl)N1Cc2cccn2Cc2ccccc21 [Example 13, [2-Chloro-4-(3-trifluoromethyl-pyrazol-1-yl)-phenyl]-(5H,11H-pyrrolo[2,1-c][1,4]benzodiazepin-10-yl)-methanone]			229	50	
O=C(c1ccc(-c2ccn(C(=O)c3ccc(F)cc3Cl)n2)cc1)N1Cc2cccn2Cc2ccccc21 [Example 37, {4-[1-(2-Chloro-4-fluoro-benzoyl)-1H-pyrazol-3-yl]-phenyl}-(5H,11H-pyrrolo[2,1-c][1,4]benzodiazepin-10-yl]methanone]			370	71	
